Literature values in patent publication US20030012825A1, “Metallized molecule therapies” (priority 2000, published 2003).

Key:
[1] = in vivo
Metrazol-induced seizure = details: subcutaneously
[2] = system: Maximal Electroshock-induced seizure; details: subcutaneously
[3] = system: flow-mediated vasodilation; details: in vivo
[4] = in vivo; remark: listed apart in the source

For `COC1=C(OC)C(=O)C(C/C=C(\C)CC/C=C(\C)CC/C=C(\C)CC/C=C(\C)CC/C=C(\C)CC/C=C(\C)CC/C=C(\C)CC/C=C(\C)CC/C=C(\C)CCC=C(C)C)=C(C)C1=O` [Coenzyme Q10], the EEG brain activity [1] is listed as “lowering of EEG”.

In the case of `O=C(O)c1ccccc1[O-].O=C(O)c1ccccc1[O-].[Cu+2]` [Cu(II) (salicylate) 2], the “dose at which anticonvulsant activity is initiated, preventing the Metrazol-induced seizure” value (Metrazol-induced seizure) is listed as 100 milligrams per kilogram of bodyweight and the “dose at which anticonvulsant activity is initiated, preventing the Maximal Electroshock-induced seizure” value [2] is listed as 600 milligrams per kilogram of bodyweight.

In the case of `[Cl][Cu][Cl]` [copper chloride], the “effect on flow-mediated vasodilation” value [3] is given as “improve flow-mediated vasodilation”.

For `[Cu+]` [copper ions], the “effect on intracellular HIV replication” value (HIV) is given as “inhibit intracellular HIV replication”.

For `N[C@@H](Cc1ccc(O)cc1)C(=O)O` [tyrosine], the “ability to pass the blood-brain barrier” value [4] is given as “unique ability of passing the blood-brain barrier”.
